# Measurements as given in patent publication US4233296A, “11β-Substituted-Δ^4,9 -estradienes” (Roussel Uclaf, priority 1977, dated 1980).
# Assays:
# [1] = target: T1, specific uterine reception of progesterone (progesterone receptor, uterus cytosol) (Oryctolagus cuniculus, UniProt P06186); assay: Progestomimetic activity: hormonal receptor method, displacement of tritiated 17,21-dimethyl-19-nor-Δ4,9-pregnadiene-3,20-dione in uterus cytosol; type: binding, rabbit; conditions: for affinity for uterine progesterone receptor compared with progesterone (in words): conclusion from Table VI; for ARL (relative affinity of the test product): progesterone = 100, from CP and CX (concentrations inhibiting by 50% the fixation of tritiated product R), immature rabbit uterus cytosol, 0° C., 2 hours
# T1 construct: the uterus was removed and homogenized in a buffered solution; from tissue; host or cells: uterus cytosol (105,000 g supernatant) of estradiol-primed immature rabbits
# T1 sequence (P06186 1-930): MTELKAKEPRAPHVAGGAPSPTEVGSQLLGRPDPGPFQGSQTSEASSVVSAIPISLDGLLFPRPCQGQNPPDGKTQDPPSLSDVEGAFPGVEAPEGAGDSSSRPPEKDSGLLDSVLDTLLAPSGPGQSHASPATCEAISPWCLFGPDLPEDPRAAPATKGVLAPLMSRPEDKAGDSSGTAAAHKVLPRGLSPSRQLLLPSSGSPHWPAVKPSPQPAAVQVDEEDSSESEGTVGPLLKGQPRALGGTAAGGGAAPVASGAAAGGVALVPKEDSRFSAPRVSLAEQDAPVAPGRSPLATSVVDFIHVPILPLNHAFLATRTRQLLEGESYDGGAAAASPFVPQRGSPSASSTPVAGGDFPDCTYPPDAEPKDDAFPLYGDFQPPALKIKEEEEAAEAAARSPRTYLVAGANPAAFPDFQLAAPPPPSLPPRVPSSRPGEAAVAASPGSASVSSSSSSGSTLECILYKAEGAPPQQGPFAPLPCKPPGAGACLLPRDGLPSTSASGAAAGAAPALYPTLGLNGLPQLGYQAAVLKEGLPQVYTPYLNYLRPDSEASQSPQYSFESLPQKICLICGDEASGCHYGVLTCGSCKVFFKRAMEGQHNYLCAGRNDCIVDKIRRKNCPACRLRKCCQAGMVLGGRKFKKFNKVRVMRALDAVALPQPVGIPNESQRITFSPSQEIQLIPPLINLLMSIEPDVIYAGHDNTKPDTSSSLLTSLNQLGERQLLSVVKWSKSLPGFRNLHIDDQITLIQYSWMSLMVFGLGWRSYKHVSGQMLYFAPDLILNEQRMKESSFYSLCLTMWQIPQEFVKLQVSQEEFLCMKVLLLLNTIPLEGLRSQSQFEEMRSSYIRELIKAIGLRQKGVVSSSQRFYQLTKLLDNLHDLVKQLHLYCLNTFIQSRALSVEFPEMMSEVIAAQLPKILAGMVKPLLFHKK
# Experimental: The progestomimetic activity was determined for 11β-vinyl-17α-methyl-17β-acetyl-Δ^4,9 -estradiene-3-one [product A], 11β-vinyl-17α-acetoxy-17β-acetyl-Δ^4,9 -estradiene-3-one [product B] and 11β-vinyl-17α-ethynyl-Δ^4,9 -estradiene-17α-ol-3-one [product C] was determined by the hormonal receptor method of Raynaud et al [J. Ster. Biochem., Vol. 6 (1975), p-615-622 and Physiology and Genetics of Reproduction, part A (1975), p. 143-160]. Immature rabbits received subcutaneously 25γ of estradiol and 5 days later, the animals were sacrificed and the uterus was removed and homogenized in a buffered solution of 10 mm of tromethamine, 0.25 M of saccharose and a pH of 7.4 with hydrochloric acid. The homogenate was centrifuged at 105,000 g per hour and the surnageant or cytosol was adjusted to a dilution of 1/50 (weight/volume). […] The radioactivity of the tritiated product R was determined after 2 hours by the technique of adsorption on carbon-dextran (1.25-0.625%). The curves representing the percentage of tritiated product R as a function of the log of the concentration, of cold product R, of progesterone or the test products and the I50 straight line parallel to the axis of the abcisses and ordinates were plotted. [formula] B/T max. is the percentage of tied tritiated product R when the product is not added and B/T min. is the percentage of tied tritiated product R when the maximum amount of cold product R is added. The intersections of these I50 straight lines and the curves permit the determination of the values: CP - concentration of cold progesterone which inhibits by 50% the fixation of the tritiated product R and CX-concentration of test product which inhibits by 50% the fixation of tritiated product R. The relative affinity of the test product (ARL) was determined by the formula [formula] and the results are reported in Table VI.
# [2] = target: T2, prostatic androgenic reception of testosterone (androgen receptor, prostate cytosol) (Rattus norvegicus, UniProt P15207); assay: Androgenic activity: hormonal receptor method, displacement of tritiated 17α-methyl-Δ4,9,11-estratriene-17β-ol-3-one in prostate cytosol; type: binding
# T2 construct: The prostate was recovered from male rats castrated 24 hours earlier and was homogenized; from tissue; host or cells: prostate cytosol (105,000 g supernatant) of male rats castrated 24 hours earlier
# T2 sequence (P15207 1-902): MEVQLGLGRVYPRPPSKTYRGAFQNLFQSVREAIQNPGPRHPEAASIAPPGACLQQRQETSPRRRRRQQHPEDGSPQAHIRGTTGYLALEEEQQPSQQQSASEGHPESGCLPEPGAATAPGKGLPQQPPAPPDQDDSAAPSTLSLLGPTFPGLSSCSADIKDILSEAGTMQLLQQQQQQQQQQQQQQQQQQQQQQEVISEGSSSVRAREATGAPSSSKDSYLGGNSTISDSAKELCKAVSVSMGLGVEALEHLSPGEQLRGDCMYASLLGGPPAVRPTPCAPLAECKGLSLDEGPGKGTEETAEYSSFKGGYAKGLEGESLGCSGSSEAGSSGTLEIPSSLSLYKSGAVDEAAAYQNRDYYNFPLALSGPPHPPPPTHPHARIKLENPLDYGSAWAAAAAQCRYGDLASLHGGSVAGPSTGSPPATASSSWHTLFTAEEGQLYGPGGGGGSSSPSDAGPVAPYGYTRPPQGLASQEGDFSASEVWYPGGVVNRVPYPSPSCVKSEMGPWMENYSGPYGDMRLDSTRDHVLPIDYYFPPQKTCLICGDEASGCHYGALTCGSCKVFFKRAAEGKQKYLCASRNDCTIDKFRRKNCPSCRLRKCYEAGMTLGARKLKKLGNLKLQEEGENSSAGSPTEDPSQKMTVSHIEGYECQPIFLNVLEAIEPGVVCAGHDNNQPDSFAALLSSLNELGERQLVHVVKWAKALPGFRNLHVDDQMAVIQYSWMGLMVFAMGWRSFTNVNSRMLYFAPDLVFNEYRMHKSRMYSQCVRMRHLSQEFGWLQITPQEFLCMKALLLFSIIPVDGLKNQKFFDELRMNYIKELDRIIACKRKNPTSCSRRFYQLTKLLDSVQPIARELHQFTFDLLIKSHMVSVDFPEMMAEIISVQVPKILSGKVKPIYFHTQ
# Experimental: This test also used the method of Raynaud et al discussed above. The prostate was recovered from male rats castrated 24 hours earlier and was homogenized in a buffer containing 10 mm of tromethamine and 0.25 M of saccharose and sufficient hydrochloric acid for a pH of 7.4. The homogenate was centrifuged at 105,000 g for one hour and the surnageant liquid or cytosol was adjusted to a dilution of 1/5 (weight/volume).
# The radioactivity of the tied tritiated product was determined after 2 hours by absorption technique on carbon-dextran (1.25%-0.625%). […] [formula] were ploted. B/T max. is the percentage of tied tritiated product R when the product is not added and B/T min. is the percentage of tied tritiated product R when the maximum amount of cold product R is added.
Compound,affinity for uterine progesterone receptor compared with progesterone (in words) [1],ARL (relative affinity of the test product) [1],affinity for prostatic androgen receptor compared with testosterone (in words) ([2]; conclusion from Table VII),"ARL (relative affinity of the test product) ([2]; testosterone = 100, from CT and CX (concentrations inhibiting by 50% the fixation of tritiated product R), castrated rat prostate cytosol, 0° C., 2 hours)"
"C=C[C@H]1C[C@@]2(C)[C@@H](CC[C@]2(C)C(C)=O)[C@@H]2CCC3=CC(=O)CCC3=C21 [Product A, 11β-vinyl-17α-methyl-17β-acetyl-Δ^4,9-estradiene-3-one]",greater affinity for specific uterine reception of progesterone than progesterone,160,–,–
"C=C(C)[C@H]1C[C@@]2(C)[C@@H](CC[C@]2(C)O)[C@@H]2CCC3=CC(=O)CCC3=C12 [Product D, 11β-isopropenyl-17α-methyl-Δ^4,9-estradiene-17β-ol-3-one]",–,–,affinity on the order of that of testosterone,80
"C=C[C@H]1C[C@@]2(C)[C@@H](CC[C@]2(OC(C)=O)C(C)=O)[C@@H]2CCC3=CC(=O)CCC3=C21 [Product B, 11β-vinyl-17α-acetoxy-17β-acetyl-Δ^4,9-estradiene-3-one]",greater affinity for specific uterine reception of progesterone than progesterone,120,–,–
"C#C[C@]1(O)CC[C@H]2[C@@H]3CCC4=CC(=O)CCC4=C3[C@@H](C=C)C[C@@]21C [Product C, 11β-vinyl-17α-ethynyl-Δ^4,9-estradiene-17β-ol-3-one]",greater affinity for specific uterine reception of progesterone than progesterone,150,–,–
